The source of these data is US20050260637A1, “Drug screening” (priority 2004, published 2005).

Where two headings read alike, the source gives them in different places.

The target in series [1] is T1, M2/M1 (hRRM2 and hRRM1 reconstituted RNR) (Homo sapiens, UniProt P31350).
T1 construct: 6xHis; made in house
T1 sequence (P31350 1-389): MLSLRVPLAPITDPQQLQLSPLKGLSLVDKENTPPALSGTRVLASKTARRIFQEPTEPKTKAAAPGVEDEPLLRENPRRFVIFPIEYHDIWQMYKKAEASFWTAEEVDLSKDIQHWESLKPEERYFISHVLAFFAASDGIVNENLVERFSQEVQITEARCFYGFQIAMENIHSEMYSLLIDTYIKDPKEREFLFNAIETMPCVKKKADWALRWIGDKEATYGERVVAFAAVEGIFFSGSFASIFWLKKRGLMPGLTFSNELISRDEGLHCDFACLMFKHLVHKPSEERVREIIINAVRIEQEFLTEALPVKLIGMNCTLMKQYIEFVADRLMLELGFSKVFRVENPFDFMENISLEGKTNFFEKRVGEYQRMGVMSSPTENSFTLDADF
In words: In vitro RNR activity assay with reconstituted hRRM2/hRRM1 ([3H]CDP reduction). In kind it is biochemical. Conditions: read-out: In vitro RR activity (IC50 ± sd) M2/M1. As for the experimental part:
(§1) To reconstitute an active RNR, three 6′His-tag human RNR subunit proteins (hRRM2, p53R2, and hRRM1) were prokaryotically expressed, purified using Ni-resin affinity chromatography, and stored in 50 mM Tris-HCl, pH 7.4, 100 mM KCl at −70° C. according to standard techniques. The purified proteins were subjected to SDS-PAGE analysis. […] To reconstitute RNR, 1 μM of hRRM2 or p53R2 protein was incubated with 0.5 μM hRRM1 protein in multiple-well plates. The reconstitute RNR was tested for RNR activity according to standard techniques.
(§2) Each compound of various concentration was mixed with the purified hRRM2 and hRRM1, or p53R2 and hRRM1 at room temperature for 30 minutes. An enzymatic reaction buffer was then added to the mixture to reach a final volume of 100 μl and incubated at 37° C. for 30 minutes. The reaction buffer contained […] [^3H] CDP, 50 mM HEPES pH 7.2,6 mM DTT, 4 mM MgOAC, 2 mM ATP, 0.05 mM CDP, 100 mM KCl, and 0.24 mM NADPH. […] FeCl3 could be added to the buffer as an iron source. After dephosphorylation, the supernatant of each reaction mixture was analyzed by an HPLC-connected radioactivity detector. IC50 values were calculated by the non-linear regression equations: f (x)=(a-d)/[1+(x/c)^b]+d.

For series [2], the target named is T2, p53R2/M1 (p53R2 and hRRM1 reconstituted RNR) (Homo sapiens, UniProt Q7LG56).
T2 construct: 6xHis; made in house
T2 sequence (Q7LG56 1-351): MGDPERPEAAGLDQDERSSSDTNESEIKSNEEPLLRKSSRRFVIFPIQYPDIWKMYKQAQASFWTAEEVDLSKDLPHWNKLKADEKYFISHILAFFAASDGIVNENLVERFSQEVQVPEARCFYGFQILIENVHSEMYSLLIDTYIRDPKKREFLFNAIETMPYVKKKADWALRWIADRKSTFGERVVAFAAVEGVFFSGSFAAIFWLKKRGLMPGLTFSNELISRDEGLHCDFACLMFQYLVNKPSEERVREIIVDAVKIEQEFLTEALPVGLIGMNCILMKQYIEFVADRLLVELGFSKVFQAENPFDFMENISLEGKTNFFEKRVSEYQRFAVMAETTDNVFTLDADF
Briefly: In vitro RNR activity assay with reconstituted p53R2/hRRM1 ([3H]CDP reduction). To be noted: read-out: In vitro RR activity (IC50 ± sd) p53R2/M1. In kind it is biochemical. As for the experimental part:
as §1, §2

Series [3] can be described thus: Standard cell-based assay. To be noted: read-out: Cell-based assay (IC50 ± sd).
Series [4] concerns RNR containing hRRM2 or p53R2. In words: In vitro RNR activity assay, both reconstituted RNRs compared (average, selective index, comparison in words). Format: biochemical, human. Conditions: for Selective index: M2/M1 versus p53R2/M1. As for the experimental part:
as §1, §2
(§3) The above-described four SB-HSCs were tested for their inhibitory potency and subunit-selectivity by the in vitro RNR assay in the same manner descried above. The dose-dependent inhibition curves were found.

The test system of series [5] is T3, RNR containing hRRM2 or p53R2.
T3 construct: In vitro RR activity (IC50) Average; other: compound in 1% DMSO; average of M2/M1 and p53R2/M1; other: compound in 2.5% DMSO; other: compound in dH2O + FeCl3; other: compound in dH2O; Inhi; fused on or other part: 6xHis tag on each subunit
Described as above. In kind it is biochemical, human. To be noted: average of M2/M1 and p53R2/M1, read-out: In vitro RR activity (IC50) Average. As for the experimental part: as §1, §2, §3

The target in series [6] is T4, hRRM1 (human ribonucleotide reductase large subunit M1).
T4 chain: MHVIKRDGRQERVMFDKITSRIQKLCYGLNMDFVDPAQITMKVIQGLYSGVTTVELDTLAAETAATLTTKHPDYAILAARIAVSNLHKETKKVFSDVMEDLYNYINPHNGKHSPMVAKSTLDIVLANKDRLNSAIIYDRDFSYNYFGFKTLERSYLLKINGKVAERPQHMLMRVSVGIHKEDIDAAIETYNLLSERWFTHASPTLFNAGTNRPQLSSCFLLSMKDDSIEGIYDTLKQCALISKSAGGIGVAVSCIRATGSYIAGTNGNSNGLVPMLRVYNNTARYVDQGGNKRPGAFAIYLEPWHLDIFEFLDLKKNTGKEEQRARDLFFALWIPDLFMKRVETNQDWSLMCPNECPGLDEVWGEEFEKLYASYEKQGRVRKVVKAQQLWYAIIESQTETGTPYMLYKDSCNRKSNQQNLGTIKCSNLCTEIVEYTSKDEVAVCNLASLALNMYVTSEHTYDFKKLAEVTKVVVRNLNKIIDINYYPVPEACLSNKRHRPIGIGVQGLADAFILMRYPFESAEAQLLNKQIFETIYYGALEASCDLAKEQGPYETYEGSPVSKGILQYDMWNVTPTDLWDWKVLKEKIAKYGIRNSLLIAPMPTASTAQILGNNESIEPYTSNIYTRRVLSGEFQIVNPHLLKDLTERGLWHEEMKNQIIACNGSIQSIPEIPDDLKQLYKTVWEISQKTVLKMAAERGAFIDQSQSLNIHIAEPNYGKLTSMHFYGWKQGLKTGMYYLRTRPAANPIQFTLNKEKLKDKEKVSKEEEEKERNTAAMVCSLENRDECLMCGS

The target in series [7] is T5, hRRM1 (human ribonucleotide reductase large subunit M1) (human, UniProt P23921 1-792).
T5 construct: also called R1 subunit
T5 sequence: T4 chain
In words: complex formation (method not described).

For the molecule `O=C(NO)NN=Cc1ccc(O)c(O)c1O` [SB-HSC21], the IC50 was 11.5 ± 0.63 µM in series [1] (compound in 1% DMSO), 13.6 ± 0.7 µM in series [2] (compound in 1% DMSO), 2.7 ± 0.6 µM in series [3] and 12.5 µM in series [5] (compound in 1% DMSO). The “Small subunit selectivity of RNR inhibition (in words)” value in series [4] is on record as “almost the same inhibitory activities on both small subunits”. The molecule also yielded a Selective index in series [4] (compound in 1% DMSO) of 0.85.

`Cc1c2ccccc2c(C=NNC(=O)NO)c2ccccc12` [SB-HSC29]: the IC50 was over 250 µM in series [1] (compound in 2.5% DMSO), over 250 µM in series [2] (compound in 2.5% DMSO), 4.4 µM in series [3] and over 250 µM in series [5] (compound in 2.5% DMSO).

Regarding `C[S+](C)[O-]` [DMSO], the “Small subunit selectivity of RNR inhibition (in words)” value in series [4] is “inhibited p53R2-containing-RNR more potently than hRRM2-containing RNR”.

For `O=C(NO)NN=Cc1ccc([N+](=O)[O-])s1` [SB-HSC24], the IC50 in series [1] (compound in 2.5% DMSO) stood at 52 ± 2.03 µM; in series [2] (compound in 2.5% DMSO), 11.5 ± 0.6 µM; in series [3] it was 10.6 ± 0.3 µM; in series [5] (compound in 2.5% DMSO) it was 31.7 µM. In addition, the “Small subunit selectivity of RNR inhibition (in words)” value in series [4] is “significantly more efficient in inactivating p53R2”. In series [4] (compound in 2.5% DMSO), this molecule displayed a Selective index of 4.53.

Turning to `NNC(N)=O` [SC, semicarbazide, reference compound], the IC50 is over 5000 µM in series [1] (compound in dH2O), over 5000 µM in series [2] (compound in dH2O), over 2190 µM in series [3] and over 5000 µM in series [5] (compound in dH2O).

With `O=C(NO)NN=Cc1cc(Cl)cc(Cl)c1O` [SB-HSC2], the IC50 in series [1] (compound in 2.5% DMSO) was 111 ± 6.64 µM; in series [2] (compound in 2.5% DMSO) it was 30.6 ± 1.62 µM; in series [3], 6.5 ± 0.6 µM; in series [5] (compound in 2.5% DMSO), 70.7 µM. The “Small subunit selectivity of RNR inhibition (in words)” value in series [4] was “significantly more efficient in inactivating p53R2”. In series [4] (compound in 2.5% DMSO), this molecule returned a Selective index of 3.62.

B1: hRRM2 (human ribonucleotide reductase small subunit M2) (protein)
chain: T1 sequence (P31350 1-389)
For the molecule B1, the “RNR activity of reconstituted RNR” value in series [6] is reported as “It was found it possessed RNR activity”.

B2: truncated form of the M2 subunit, lacking these 7 amino acids at the C-terminus (enzyme)
chain: MLSLRVPLAPITDPQQLQLSPLKGLSLVDKENTPPALSGTRVLASKTARRIFQEPTEPKTKAAAPGVEDEPLLRENPRRFVIFPIEYHDIWQMYKKAEASFWTAEEVDLSKDIQHWESLKPEERYFISHVLAFFAASDGIVNENLVERFSQEVQITEARCFYGFQIAMENIHSEMYSLLIDTYIKDPKEREFLFNAIETMPCVKKKADWALRWIGDKEATYGERVVAFAAVEGIFFSGSFASIFWLKKRGLMPGLTFSNELISRDEGLHCDFACLMFKHLVHKPSEERVREIIINAVRIEQEFLTEALPVKLIGMNCTLMKQYIEFVADRLMLELGFSKVFRVENPFDFMENISLEGKTNFFEKRVGEYQRMGVMSSPTENS
notes: also called truncated M2
In the case of B2, in series [7], the binding result is “no binding”.

B3: p53R2 (human ribonucleotide reductase small subunit p53R2) (protein)
chain: T2 sequence (Q7LG56 1-351)
Take B3: the “RNR activity of reconstituted RNR” value in series [6] was “It was found it possessed RNR activity”.
